Experimental data as given in article PMC8245773, “Brevibacillin 2V, a Novel Antimicrobial Lipopeptide With an Exceptionally Low Hemolytic Activity” (Frontiers in Microbiology, 2021).

How the values were obtained:
Experiment in all cases: Synergy assay, checkerboard method
P. aeruginosa LMG6395 = details: for FICI: synergistic ≤0.5; for MIC of antibiotic at brevibacillin 0 mg/L / MIC of antibiotic at brevibacillin 2V 0 mg/L / MIC of antibiotic at brevibacillin I 0 mg/L / MIC of antibiotic at brevibacillin V 0 mg/L: checkerboard, 5 × 10^5 cfu/ml, 37°C, 20 h, antibiotic alone
Procedure: (§1) Briefly, antibiotics were diluted in twofold series, while brevibacillins were added at a certain final concentration of 1, 2, or 4 mg/L. Indicator strains were added at a final concentration of 5 × 10^5 cfu/ml. After incubation at 37°C for 20 h, the OD600 of plates was determined. The fractional inhibitory concentration index (FICI) was calculated using the following formula: FICI = (MIC compound A in combination with B / MIC compound A) + (MIC compound B in combination with A / MIC compound B).

A. baumannii ATCC17978 = details: for FICI / MIC of antibiotic at brevibacillin 0 mg/L / MIC of antibiotic at brevibacillin 2V 0 mg/L / MIC of antibiotic at brevibacillin I 0 mg/L / MIC of antibiotic at brevibacillin V 0 mg/L: A. baumannii ATCC17978; for FICI: synergistic ≤0.5; for MIC of antibiotic at brevibacillin 0 mg/L / MIC of antibiotic at brevibacillin 2V 0 mg/L / MIC of antibiotic at brevibacillin I 0 mg/L / MIC of antibiotic at brevibacillin V 0 mg/L: checkerboard, 5 × 10^5 cfu/ml, 37°C, 20 h, antibiotic alone
Procedure: as §1

E. coli ATCC 25922 = details: for FICI: synergistic ≤0.5; for MIC of antibiotic at brevibacillin 0 mg/L / MIC of antibiotic at brevibacillin 2V 0 mg/L / MIC of antibiotic at brevibacillin I 0 mg/L / MIC of antibiotic at brevibacillin V 0 mg/L: checkerboard, 5 × 10^5 cfu/ml, 37°C, 20 h, antibiotic alone
Procedure: as §1

K. pneumoniae LMG20218 = details: for FICI: synergistic ≤0.5; for MIC of antibiotic at brevibacillin 0 mg/L / MIC of antibiotic at brevibacillin 2V 0 mg/L / MIC of antibiotic at brevibacillin I 0 mg/L / MIC of antibiotic at brevibacillin V 0 mg/L: checkerboard, 5 × 10^5 cfu/ml, 37°C, 20 h, antibiotic alone
Procedure: as §1

[1] = antibiotic + brevibacillin 2V, E. coli ATCC 25922
[2] = antibiotic + brevibacillin I, E.coli ATCC 25922
[3] = antibiotic + brevibacillin V, E.coli ATCC 25922
[4] = antibiotic + brevibacillin, E.coli ATCC 25922

| Compound | FICI (P. aeruginosa LMG6395; antibiotic + brevibacillin 2V) | FICI (P. aeruginosa LMG6395; antibiotic + brevibacillin I) | FICI (P. aeruginosa LMG6395; antibiotic + brevibacillin V) | FICI (P. aeruginosa LMG6395; antibiotic + brevibacillin) | MIC of antibiotic at brevibacillin 0 mg/L (P. aeruginosa LMG6395) [µg/mL] | MIC of antibiotic at brevibacillin 2V 0 mg/L (P. aeruginosa LMG6395) [µg/mL] | MIC of antibiotic at brevibacillin I 0 mg/L (P. aeruginosa LMG6395) [µg/mL] | MIC of antibiotic at brevibacillin V 0 mg/L (P. aeruginosa LMG6395) [µg/mL] | FICI (A. baumannii ATCC17978; antibiotic + brevibacillin 2V) | FICI (A. baumannii ATCC17978; antibiotic + brevibacillin I) | FICI (A. baumannii ATCC17978; antibiotic + brevibacillin V) | FICI (A. baumannii ATCC17978; antibiotic + brevibacillin) | MIC of antibiotic at brevibacillin 0 mg/L (A. baumannii ATCC17978) [µg/mL] | MIC of antibiotic at brevibacillin 2V 0 mg/L (A. baumannii ATCC17978) [µg/mL] | MIC of antibiotic at brevibacillin I 0 mg/L (A. baumannii ATCC17978) [µg/mL] | MIC of antibiotic at brevibacillin V 0 mg/L (A. baumannii ATCC17978) [µg/mL] | FICI (E. coli ATCC 25922; [1]) | FICI (E. coli ATCC 25922; [2]) | FICI (E. coli ATCC 25922; [3]) | FICI (E. coli ATCC 25922; [4]) | further results |
| --- | --- | --- | --- | --- | --- | --- | --- | --- | --- | --- | --- | --- | --- | --- | --- | --- | --- | --- | --- | --- | --- |
| NCC[C@H](O)C(=O)N[C@@H]1C[C@H](N)[C@@H](O[C@H]2O[C@H](CN)[C@@H](O)[C@H](O)[C@H]2O)[C@H](O)[C@H]1O[C@H]1O[C@H](CO)[C@@H](O)[C@H](N)[C@H]1O [Amikacin] | 0.266 | 0.266 | 0.266 | 0.266 | 2 | 2 | 2 | 2 | 0.141 | 0.078 | 0.094 | 0.094 | 16 | 16 | 16 | 16 | 0.188 | 0.281 | 0.250 | 0.156 | decrease of MIC of amikacin against A. baumannii (A. baumannii ATCC17978; in the presence of 4 mg/L brevibacillins): 32–64 folds; MIC of antibiotic at brevibacillin 0 mg/L (E. coli ATCC 25922; E.coli ATCC 25922): 4 µg/mL; MIC of antibiotic at brevibacillin 2V 0 mg/L (E. coli ATCC 25922; E.coli ATCC 25922): 4 µg/mL; MIC of antibiotic at brevibacillin I 0 mg/L (E. coli ATCC 25922; E.coli ATCC 25922): 4 µg/mL; MIC of antibiotic at brevibacillin V 0 mg/L (E. coli ATCC 25922; E.coli ATCC 25922): 4 µg/mL; FICI (K. pneumoniae LMG20218; antibiotic + brevibacillin 2V): 0.563; FICI (K. pneumoniae LMG20218; antibiotic + brevibacillin I): 0.563; FICI (K. pneumoniae LMG20218; antibiotic + brevibacillin V): 1.016; FICI (K. pneumoniae LMG20218; antibiotic + brevibacillin): 1.031; MIC of antibiotic at brevibacillin 0 mg/L (K. pneumoniae LMG20218): 0.5 µg/mL; MIC of antibiotic at brevibacillin 2V 0 mg/L (K. pneumoniae LMG20218): 0.5 µg/mL; MIC of antibiotic at brevibacillin I 0 mg/L (K. pneumoniae LMG20218): 0.5 µg/mL; MIC of antibiotic at brevibacillin V 0 mg/L (K. pneumoniae LMG20218): 0.5 µg/mL |
| CC[C@H]1OC(=O)[C@H](C)[C@@H](O[C@H]2C[C@@](C)(OC)[C@@H](O)[C@H](C)O2)[C@H](C)[C@@H](O[C@@H]2O[C@H](C)C[C@H](N(C)C)[C@H]2O)[C@](C)(O)C[C@@H](C)CN(C)[C@H](C)[C@@H](O)[C@]1(C)O [Azithromycin] | 0.266 | 0.266 | 0.516 | 0.516 | 128 | 128 | 128 | 128 | 0.531 | 0.516 | 1.016 | 0.531 | 16 | 16 | 16 | 16 | 0.281 | 0.375 | 0.563 | 0.188 | MIC of antibiotic at brevibacillin 0 mg/L (E. coli ATCC 25922; E.coli ATCC 25922): 2 µg/mL; MIC of antibiotic at brevibacillin 2V 0 mg/L (E. coli ATCC 25922; E.coli ATCC 25922): 2 µg/mL; MIC of antibiotic at brevibacillin I 0 mg/L (E. coli ATCC 25922; E.coli ATCC 25922): 2 µg/mL; MIC of antibiotic at brevibacillin V 0 mg/L (E. coli ATCC 25922; E.coli ATCC 25922): 2 µg/mL; FICI (K. pneumoniae LMG20218; antibiotic + brevibacillin 2V): 1.031; FICI (K. pneumoniae LMG20218; antibiotic + brevibacillin I): 1.016; FICI (K. pneumoniae LMG20218; antibiotic + brevibacillin V): 1.016; FICI (K. pneumoniae LMG20218; antibiotic + brevibacillin): 1.031; MIC of antibiotic at brevibacillin 0 mg/L (K. pneumoniae LMG20218): 16 µg/mL; MIC of antibiotic at brevibacillin 2V 0 mg/L (K. pneumoniae LMG20218): 16 µg/mL; MIC of antibiotic at brevibacillin I 0 mg/L (K. pneumoniae LMG20218): 16 µg/mL; MIC of antibiotic at brevibacillin V 0 mg/L (K. pneumoniae LMG20218): 16 µg/mL |
| CCn1cc(C(=O)O)c(=O)c2ccc(C)nc21 [Nalidixic acid] | 0.266 | 0.266 | 0.516 | 0.516 | 256 | 256 | 256 | 256 | 0.531 | 0.516 | 1.016 | 0.625 | 32 | 32 | 32 | 32 | 0.313 | 0.313 | 0.375 | 0.375 | MIC of antibiotic at brevibacillin 0 mg/L (E. coli ATCC 25922; E.coli ATCC 25922): 2 µg/mL; MIC of antibiotic at brevibacillin 2V 0 mg/L (E. coli ATCC 25922; E.coli ATCC 25922): 2 µg/mL; MIC of antibiotic at brevibacillin I 0 mg/L (E. coli ATCC 25922; E.coli ATCC 25922): 2 µg/mL; MIC of antibiotic at brevibacillin V 0 mg/L (E. coli ATCC 25922; E.coli ATCC 25922): 2 µg/mL; FICI (K. pneumoniae LMG20218; antibiotic + brevibacillin 2V): 0.531; FICI (K. pneumoniae LMG20218; antibiotic + brevibacillin I): 0.516; FICI (K. pneumoniae LMG20218; antibiotic + brevibacillin V): 1.016; FICI (K. pneumoniae LMG20218; antibiotic + brevibacillin): 0.563; MIC of antibiotic at brevibacillin 0 mg/L (K. pneumoniae LMG20218): 32 µg/mL; MIC of antibiotic at brevibacillin 2V 0 mg/L (K. pneumoniae LMG20218): 32 µg/mL; MIC of antibiotic at brevibacillin I 0 mg/L (K. pneumoniae LMG20218): 32 µg/mL; MIC of antibiotic at brevibacillin V 0 mg/L (K. pneumoniae LMG20218): 32 µg/mL |
| CO[C@H]1/C=C/O[C@@]2(C)Oc3c(C)c(O)c4c(O)c(c(/C=N/N5CCN(C)CC5)c(O)c4c3C2=O)NC(=O)/C(C)=C\C=C\[C@H](C)[C@H](O)[C@@H](C)[C@@H](O)[C@@H](C)[C@H](OC(C)=O)[C@@H]1C [Rifampicin] | 0.516 | 0.516 | 0.516 | 0.281 | 32 | 32 | 32 | 32 | 0.375 | 0.516 | 0.516 | 0.281 | 32 | 32 | 32 | 32 | 0.313 | 0.531 | 0.375 | 0.250 | MIC of antibiotic at brevibacillin 0 mg/L (E. coli ATCC 25922; E.coli ATCC 25922): 4 µg/mL; MIC of antibiotic at brevibacillin 2V 0 mg/L (E. coli ATCC 25922; E.coli ATCC 25922): 4 µg/mL; MIC of antibiotic at brevibacillin I 0 mg/L (E. coli ATCC 25922; E.coli ATCC 25922): 4 µg/mL; MIC of antibiotic at brevibacillin V 0 mg/L (E. coli ATCC 25922; E.coli ATCC 25922): 4 µg/mL; MIC of antibiotic at brevibacillin 0 mg/L (K. pneumoniae LMG20218): 64 µg/mL; MIC of antibiotic at brevibacillin 2V 0 mg/L (K. pneumoniae LMG20218): 64 µg/mL; MIC of antibiotic at brevibacillin I 0 mg/L (K. pneumoniae LMG20218): 64 µg/mL; MIC of antibiotic at brevibacillin V 0 mg/L (K. pneumoniae LMG20218): 64 µg/mL |
